{"source": "ChEMBL document CHEMBL4020736", "about": "“Synthesis and biological evaluation of novel selective androgen receptor modulators (SARMs) Part III: Discovery of 4-(5-oxopyrrolidine-1-yl)benzonitrile derivative 2f as a clinical candidate” (Bioorg Med Chem, 2017)", "key": {"[1]": {"assay": "Clearance in dog liver microsomes at 1 uM after 60 mins in presence of NADPH by UPLC analysis", "type": "ADME, Canis lupus familiaris, microsome", "details": "read-out: CLH"}, "Rattus norvegicus [2]": {"test_system": "Rattus norvegicus", "assay": "Anabolic effect in castrated CD(SD)IGS rat assessed as levator ani muscle weight at 2.5 mg/kg, po bid for 4 days co-treated with testosterone propionate by Harshberger assay relative to control", "type": "functional"}, "Rattus norvegicus [3]": {"test_system": "Rattus norvegicus", "assay": "Androgenic activity in castrated CD(SD)IGS rat assessed as prostate weight at 2.5 mg/kg, po bid for 4 days co-treated with testosterone propionate by Harshberger assay relative to control", "type": "organism-based", "details": "in vivo, 96 h"}, "Rattus norvegicus [4]": {"test_system": "Rattus norvegicus", "assay": "Induction of sexual behavior in castrated CD(SD)IGS rat assessed as pseudopregnancy rate at 5 mg/kg, po qd for 21 days measured on day 18 to 21 relative to control", "type": "functional"}, "[5]": {"assay": "AUC (0 to 24 hrs) in Crl:CD(SD) rat at 0.1 mg/kg, iv by LC-MS/MS analysis", "type": "ADME, organism-based", "design": "dose 0.1 mg/kg, time < 24 hr, route intravenous", "details": "in vivo"}, "[6]": {"assay": "AUC (0 to 24 hrs) in cynomolgus monkey at 0.1 mg/kg, iv by LC-MS/MS analysis", "type": "ADME, organism-based, Macaca fascicularis", "design": "time < 24 hr, dose 0.1 mg/kg, route intravenous", "details": "in vivo"}, "[7]": {"assay": "MRT in cynomolgus monkey at 0.1 mg/kg, iv by LC-MS/MS analysis", "type": "ADME, organism-based, Macaca fascicularis", "details": "in vivo"}, "[8]": {"assay": "Volume of distribution at steady state in Crl:CD(SD) rat at 0.1 mg/kg, iv by LC-MS/MS analysis", "type": "ADME, organism-based", "details": "in vivo, read-out: Vdss"}, "[9]": {"assay": "Total clearance in Crl:CD(SD) rat at 0.1 mg/kg, iv by LC-MS/MS analysis", "type": "ADME, organism-based", "details": "in vivo"}, "[10]": {"assay": "Cmax in Crl:CD(SD) rat at 1 mg/kg, po by LC-MS/MS analysis", "type": "ADME, organism-based", "design": "dose 1 mg/kg, route oral", "details": "in vivo"}, "[11]": {"assay": "Tmax in cynomolgus monkey at 1 mg/kg, po by LC-MS/MS analysis", "type": "ADME, organism-based, Macaca fascicularis", "details": "in vivo"}, "[12]": {"assay": "AUC (0 to 24 hrs) in Crl:CD(SD) rat at 1 mg/kg, po by LC-MS/MS analysis", "type": "ADME, organism-based", "design": "dose 1 mg/kg, time < 24 hr, route oral", "details": "in vivo"}, "[13]": {"assay": "MRT in Crl:CD(SD) rat at 1 mg/kg, po by LC-MS/MS analysis", "type": "ADME, organism-based", "details": "in vivo"}, "[14]": {"assay": "MRT in Beagle dog at 1 mg/kg, po by LC-MS/MS analysis", "type": "ADME, organism-based, Canis lupus familiaris", "details": "in vivo"}, "[15]": {"assay": "Oral bioavailability in Crl:CD(SD) rat at 1 mg/kg by LC-MS/MS analysis", "type": "ADME, organism-based", "details": "in vivo"}, "[16]": {"target": "T1, Mineralocorticoid receptor (Homo sapiens, UniProt P08235)", "T1 sequence (P08235 whole entry)": "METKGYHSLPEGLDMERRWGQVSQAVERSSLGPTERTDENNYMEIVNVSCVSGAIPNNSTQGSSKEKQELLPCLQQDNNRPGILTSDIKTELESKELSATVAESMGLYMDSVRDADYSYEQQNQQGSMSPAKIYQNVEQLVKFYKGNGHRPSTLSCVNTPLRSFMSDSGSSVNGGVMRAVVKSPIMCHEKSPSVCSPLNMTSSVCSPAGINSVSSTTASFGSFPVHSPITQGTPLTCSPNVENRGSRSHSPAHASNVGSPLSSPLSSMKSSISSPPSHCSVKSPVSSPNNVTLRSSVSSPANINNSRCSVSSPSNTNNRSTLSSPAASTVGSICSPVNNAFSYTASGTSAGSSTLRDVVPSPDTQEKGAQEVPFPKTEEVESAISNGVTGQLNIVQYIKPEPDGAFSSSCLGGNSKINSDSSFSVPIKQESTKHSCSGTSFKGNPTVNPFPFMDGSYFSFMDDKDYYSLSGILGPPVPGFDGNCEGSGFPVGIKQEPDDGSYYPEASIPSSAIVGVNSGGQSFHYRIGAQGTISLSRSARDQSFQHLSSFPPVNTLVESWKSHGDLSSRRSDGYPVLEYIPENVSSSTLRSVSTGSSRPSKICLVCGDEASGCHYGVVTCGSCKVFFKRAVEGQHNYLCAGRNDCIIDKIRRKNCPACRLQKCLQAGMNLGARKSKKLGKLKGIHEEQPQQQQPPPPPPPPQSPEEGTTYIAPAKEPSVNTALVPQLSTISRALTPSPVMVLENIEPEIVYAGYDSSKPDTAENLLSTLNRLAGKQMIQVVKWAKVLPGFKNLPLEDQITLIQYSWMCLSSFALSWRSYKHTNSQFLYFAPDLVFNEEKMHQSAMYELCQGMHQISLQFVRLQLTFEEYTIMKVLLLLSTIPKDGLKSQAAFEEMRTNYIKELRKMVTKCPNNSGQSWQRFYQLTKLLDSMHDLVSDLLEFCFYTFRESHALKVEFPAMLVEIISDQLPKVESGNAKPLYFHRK", "assay": "Binding affinity to MR (unknown origin)"}, "Progesterone receptor": {"target": "T2, Progesterone receptor (Homo sapiens, UniProt P06401)", "T2 sequence (P06401 whole entry)": "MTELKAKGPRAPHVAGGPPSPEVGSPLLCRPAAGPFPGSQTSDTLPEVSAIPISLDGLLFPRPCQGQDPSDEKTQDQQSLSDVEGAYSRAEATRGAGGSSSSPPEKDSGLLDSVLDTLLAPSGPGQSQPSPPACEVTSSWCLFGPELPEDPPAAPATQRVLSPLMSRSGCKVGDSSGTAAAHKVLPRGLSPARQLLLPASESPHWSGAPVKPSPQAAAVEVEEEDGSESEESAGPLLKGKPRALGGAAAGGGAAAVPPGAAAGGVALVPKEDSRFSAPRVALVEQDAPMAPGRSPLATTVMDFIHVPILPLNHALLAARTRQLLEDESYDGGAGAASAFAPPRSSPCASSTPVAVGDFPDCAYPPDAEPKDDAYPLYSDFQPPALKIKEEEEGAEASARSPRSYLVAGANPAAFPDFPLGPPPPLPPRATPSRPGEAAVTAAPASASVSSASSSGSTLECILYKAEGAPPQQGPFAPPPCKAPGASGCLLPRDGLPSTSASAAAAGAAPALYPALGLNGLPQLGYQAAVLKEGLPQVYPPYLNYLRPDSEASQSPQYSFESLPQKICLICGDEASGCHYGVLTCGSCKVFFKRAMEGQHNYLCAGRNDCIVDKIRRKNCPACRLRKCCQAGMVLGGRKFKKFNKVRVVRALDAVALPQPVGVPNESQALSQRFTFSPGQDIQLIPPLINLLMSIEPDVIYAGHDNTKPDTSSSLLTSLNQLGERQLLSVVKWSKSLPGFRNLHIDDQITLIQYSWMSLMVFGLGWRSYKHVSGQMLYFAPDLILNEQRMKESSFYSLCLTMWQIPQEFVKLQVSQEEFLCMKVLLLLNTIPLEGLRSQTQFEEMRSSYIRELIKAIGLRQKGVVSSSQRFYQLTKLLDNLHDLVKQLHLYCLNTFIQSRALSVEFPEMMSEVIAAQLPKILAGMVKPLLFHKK", "assay": "Binding affinity to PR (unknown origin)"}, "Rhesus monkey": {"test_system": "Rhesus monkey", "assay": "Toxicity in monkey assessed as myocardial necrosis administered via oral gavage", "design": "species or system Macaca mulatta", "details": "in vivo"}, "Canis familiaris [17]": {"test_system": "Canis familiaris", "assay": "Toxicity in iv dosed Beagle dog assessed as effect on electrocardiography administered via single dose", "type": "organism-based, Canis lupus familiaris", "details": "in vivo"}, "Canis familiaris [18]": {"test_system": "Canis familiaris", "assay": "Toxicity in iv dosed Beagle dog assessed as effect on heart rate administered via single dose", "type": "organism-based, Canis lupus familiaris", "details": "in vivo"}, "Canis familiaris [19]": {"test_system": "Canis familiaris", "assay": "Toxicity in iv dosed Beagle dog assessed as effect on mean blood pressure administered via single dose", "type": "organism-based, Canis lupus familiaris", "details": "in vivo"}}, "note": "pIC50: −log10 of the molar value.", "data": [{"smiles": "CC[C@H]1[C@@H](O)CC(=O)N1c1ccc(C#N)c(C(F)(F)F)c1", "values": [{"measurement": "microsomal CLint at 1 µM", "setting": "[1]", "result": 4, "unit": "µL/min/mg"}, {"measurement": "Activity", "setting": "Rattus norvegicus [2]", "result": 129, "unit": "%"}, {"measurement": "Activity", "setting": "Rattus norvegicus [3]", "result": 106, "unit": "%"}, {"measurement": "Activity", "setting": "Rattus norvegicus [4]", "result": 86, "unit": "%"}, {"measurement": "AUC(0-t) at 24 h", "setting": "[5]", "result": 108, "unit": "ng·h/mL"}, {"measurement": "AUC(0-t) at 24 h", "setting": "[6]", "result": 118, "unit": "ng·h/mL"}, {"measurement": "MRT", "setting": "[7]", "result": 1.72, "unit": "h"}, {"measurement": "Vd", "setting": "[8]", "result": 2.17, "unit": "L/kg"}, {"measurement": "clearance", "setting": "[9]", "result": 15.6, "unit": "mL/min/kg"}, {"measurement": "Cmax", "setting": "[10]", "result": 218, "unit": "ng/mL"}, {"measurement": "Tmax", "setting": "[11]", "result": 1.67, "unit": "h"}, {"measurement": "AUC(0-t) at 24 h", "setting": "[12]", "result": 809, "unit": "ng·h/mL"}, {"measurement": "MRT", "setting": "[13]", "result": 3.06, "unit": "h"}, {"measurement": "MRT", "setting": "[14]", "result": 4.34, "unit": "h"}, {"measurement": "bioavailability", "setting": "[15]", "result": 74.6, "unit": "%"}, {"measurement": "pIC50", "setting": "[16]", "result": "< 5.00"}, {"measurement": "pIC50", "setting": "Progesterone receptor", "result": "< 5.00"}, {"measurement": "Activity", "setting": "Rhesus monkey", "result": "Toxic"}, {"measurement": "Activity", "setting": "Canis familiaris [17]", "result": "Non-Toxic"}, {"measurement": "Activity", "setting": "Canis familiaris [18]", "result": "Non-Toxic"}, {"measurement": "Activity", "setting": "Canis familiaris [19]", "result": "Non-Toxic"}]}]}
